Measured values reported in patent US20120295907A1, “INSECTICIDAL COMPOUNDS” (SYNGENTA CROP PROTECTION, LLC, priority 2009, published 2012).
Read-outs that look alike come from different tables or passages of the source.

Key:
Format in all cases: in vivo
Spodoptera littoralis = Spodoptera littoralis (Egyptian Cotton Leafworm) cotton leaf disc spray test; conditions: foliar, 72 h, 200 ppm spray on cotton leaf discs, L1 larvae, mortality, feeding behavior, growth regulation 3 DAT
Heliothis virescens = Heliothis virescens (Tobacco Budworm) egg test on artificial diet; conditions: 96 h, 200 ppm (concentration in well 18 ppm), eggs 0-24 h old on artificial diet, 4 days, egg mortality, larval mortality, growth regulation
Plutella xylostella = Plutella xylostella (Diamond Back Moth) artificial diet MTP test; conditions: 144 h, 200 ppm (concentration in well 18 ppm), L2 larvae, 6 days, larval mortality, growth regulation
Diabrotica balteata = Diabrotica balteata (Corn Root Worm) artificial diet MTP test; conditions: 120 h, 200 ppm (concentration in well 18 ppm), L2 larvae, 5 days, larval mortality, growth regulation
Thrips tabaci = Thrips tabaci (Onion Thrips) sunflower leaf disc spray test; conditions: foliar, 168 h, 200 ppm spray on sunflower leaf discs, population of mixed ages, 7 days, mortality
Tetranychus urticae = Tetranychus urticae (Two-Spotted Spider Mite) bean leaf disc spray test; conditions: foliar, 192 h, read-out: control of Tetranychus urticae
[1] = 200 ppm spray on bean leaf discs, mite populations of mixed ages, 8 days, egg, larval and adult mortality

Measured: pest or weed control at 200 ppm

COc1c(NC(=O)c2ccc(OC(F)(F)F)cc2)cccc1C(=O)Nc1c(Cl)cc(C(F)(C(F)(F)F)C(F)(F)C(F)(F)F)cc1Cl (stereo not drawn) [C13]
≥ 80%: Spodoptera littoralis | Heliothis virescens | Plutella xylostella | Diabrotica balteata | Thrips tabaci | Tetranychus urticae; [1]

COc1c(NC(=O)c2ccc([N+](=O)[O-])cc2)cccc1C(=O)Nc1c(Cl)cc(C(F)(C(F)(F)F)C(F)(F)C(F)(F)F)cc1Cl (stereo not drawn) [C7]
≥ 80%: Spodoptera littoralis | Heliothis virescens | Plutella xylostella | Diabrotica balteata | Thrips tabaci | Tetranychus urticae; [1]

COc1c(NC(=O)c2cc(C)ccc2[N+](=O)[O-])cccc1C(=O)Nc1c(Cl)cc(C(F)(C(F)(F)F)C(F)(F)C(F)(F)F)cc1Br (stereo not drawn) [B74]
≥ 80%: Spodoptera littoralis | Heliothis virescens | Plutella xylostella | Diabrotica balteata | Thrips tabaci | Tetranychus urticae; [1]

COc1c(NC(=O)c2ccc(C(F)(F)F)nc2C)cccc1C(=O)Nc1c(Cl)cc(C(F)(C(F)(F)F)C(F)(F)C(F)(F)F)cc1Br (stereo not drawn) [B127]
≥ 80%: Spodoptera littoralis | Heliothis virescens | Plutella xylostella | Diabrotica balteata | Thrips tabaci | Tetranychus urticae; [1]

CCc1cc(C(F)(C(F)(F)F)C(F)(F)C(F)(F)F)cc(C)c1NC(=O)c1cccc(NC(=O)c2cccnc2Cl)c1OC (stereo not drawn) [A6]
≥ 80%: Spodoptera littoralis | Heliothis virescens | Plutella xylostella | Diabrotica balteata | Thrips tabaci | Tetranychus urticae; [1]

COc1c(NC(=O)c2ccc(F)cc2C)cccc1C(=O)Nc1c(Cl)cc(C(F)(C(F)(F)F)C(F)(F)F)cc1Cl [E7]
≥ 80%: Spodoptera littoralis | Heliothis virescens | Plutella xylostella | Diabrotica balteata | Thrips tabaci | Tetranychus urticae; [1]

COc1c(NC(=O)c2ccc(F)cc2C)cccc1C(=O)Nc1c(Cl)cc(C(F)(C(F)(F)F)C(F)(F)C(F)(F)F)cc1Cl (stereo not drawn) [C9]
≥ 80%: Spodoptera littoralis | Heliothis virescens | Plutella xylostella | Diabrotica balteata | Thrips tabaci | Tetranychus urticae; [1]

COc1c(NC(=O)c2snnc2C)cccc1C(=O)Nc1c(Cl)cc(C(F)(C(F)(F)F)C(F)(F)C(F)(F)F)cc1Cl (stereo not drawn) [C21]
≥ 80%: Spodoptera littoralis | Heliothis virescens | Plutella xylostella | Diabrotica balteata | Thrips tabaci | Tetranychus urticae; [1]

COc1c(NC(=O)c2sc(C)nc2C(F)(F)F)cccc1C(=O)Nc1c(Cl)cc(C(F)(C(F)(F)F)C(F)(F)C(F)(F)F)cc1Br (stereo not drawn) [B134]
≥ 80%: Spodoptera littoralis | Heliothis virescens | Plutella xylostella | Diabrotica balteata | Thrips tabaci | Tetranychus urticae; [1]

COc1c(NC(=O)c2ccccc2C(F)(F)F)cccc1C(=O)Nc1c(Cl)cc(C(F)(C(F)(F)F)C(F)(F)C(F)(F)F)cc1Cl (stereo not drawn) [C20]
≥ 80%: Spodoptera littoralis | Heliothis virescens | Plutella xylostella | Diabrotica balteata | Thrips tabaci | Tetranychus urticae; [1]

COc1c(NC(=O)c2ccc(F)cc2F)cccc1C(=O)Nc1c(Cl)cc(C(F)(C(F)(F)F)C(F)(F)C(F)(F)F)cc1Cl (stereo not drawn) [C23]
≥ 80%: Spodoptera littoralis | Heliothis virescens | Plutella xylostella | Diabrotica balteata | Thrips tabaci | Tetranychus urticae; [1]

COc1c(NC(=O)c2c(Cl)cccc2[N+](=O)[O-])cccc1C(=O)Nc1c(Cl)cc(C(F)(C(F)(F)F)C(F)(F)C(F)(F)F)cc1Br (stereo not drawn) [B101]
≥ 80%: Spodoptera littoralis | Heliothis virescens | Plutella xylostella | Diabrotica balteata | Thrips tabaci | Tetranychus urticae; [1]

COc1c(NC(=O)c2cccnc2C(F)(F)F)cccc1C(=O)Nc1c(Cl)cc(C(F)(C(F)(F)F)C(F)(F)C(F)(F)F)cc1Br (stereo not drawn) [B81]
≥ 80%: Spodoptera littoralis | Heliothis virescens | Plutella xylostella | Diabrotica balteata | Thrips tabaci | Tetranychus urticae; [1]

COc1c(NC(=O)c2ccc([N+](=O)[O-])cc2[N+](=O)[O-])cccc1C(=O)Nc1c(Cl)cc(C(F)(C(F)(F)F)C(F)(F)C(F)(F)F)cc1Br (stereo not drawn) [B180]
≥ 80%: Spodoptera littoralis | Heliothis virescens | Plutella xylostella | Diabrotica balteata | Thrips tabaci | Tetranychus urticae

CCc1cc(C(F)(C(F)(F)F)C(F)(F)C(F)(F)F)cc(C)c1NC(=O)c1cccc(NC(=O)c2cccnc2F)c1OC (stereo not drawn) [A7]
≥ 80%: Spodoptera littoralis | Heliothis virescens | Plutella xylostella | Diabrotica balteata | Thrips tabaci | Tetranychus urticae; [1]

COc1c(NC(=O)c2cccc(C#N)c2)cccc1C(=O)Nc1c(C)cc(C(F)(C(F)(F)F)C(F)(F)C(F)(F)F)cc1C (stereo not drawn) [F21]
≥ 80%: Spodoptera littoralis | Heliothis virescens | Plutella xylostella | Diabrotica balteata | Thrips tabaci | Tetranychus urticae; [1]

COc1c(NC(=O)c2cccc(F)c2F)cccc1C(=O)Nc1c(Cl)cc(C(F)(C(F)(F)F)C(F)(F)C(F)(F)F)cc1Cl (stereo not drawn) [C22]
≥ 80%: Spodoptera littoralis | Heliothis virescens | Plutella xylostella | Diabrotica balteata | Thrips tabaci | Tetranychus urticae; [1]

COc1c(NC(=O)c2ccc([N+](=O)[O-])cc2)cccc1C(=O)Nc1c(C)cc(C(F)(C(F)(F)F)C(F)(F)C(F)(F)F)cc1C (stereo not drawn) [F29]
≥ 80%: Spodoptera littoralis | Heliothis virescens | Plutella xylostella | Diabrotica balteata | Thrips tabaci | Tetranychus urticae; [1]

COc1c(NC(=O)c2ccc(Br)cc2Cl)cccc1C(=O)Nc1c(Cl)cc(C(F)(C(F)(F)F)C(F)(F)C(F)(F)F)cc1Br (stereo not drawn) [B135]
≥ 80%: Spodoptera littoralis | Heliothis virescens | Plutella xylostella | Diabrotica balteata | Thrips tabaci | Tetranychus urticae; [1]

CCc1cc(C(F)(C(F)(F)F)C(F)(F)C(F)(F)F)cc(C)c1NC(=O)c1cccc(NC(=O)c2cc(Cl)ccc2Cl)c1OC (stereo not drawn) [A16]
≥ 80%: Spodoptera littoralis | Heliothis virescens | Plutella xylostella | Diabrotica balteata | Thrips tabaci | Tetranychus urticae; [1]

COc1c(NC(=O)c2ccc([N+](=O)[O-])c(F)c2)cccc1C(=O)Nc1c(Cl)cc(C(F)(C(F)(F)F)C(F)(F)C(F)(F)F)cc1Br (stereo not drawn) [B192]
≥ 80%: Spodoptera littoralis | Heliothis virescens | Plutella xylostella | Diabrotica balteata | Thrips tabaci | Tetranychus urticae; [1]
